US6908906B2, “Crystalline forms of pyrimidine nucleoside derivative” (Sankyo Company, Limited, priority 2001, dated 2005)

Experiment: Stability test: storage in stoppered vessels at 60° C. under a nitrogen atmosphere, content by HPLC
Type: physicochemical
Conditions: for Stability (Residual rate): based on initial content (100%)
Protocol: In the stability test, crystals B, C and D of the present invention prepared in Examples 1, 2 and 4, respectively and the amorphous powder (Amorphous A) of compound of general formula (I) described in Example 1 (1d) of the Japanese Patent No. 2569251 were used as reference. These compounds were placed in stoppered vessels separately and stored at 60° C. under a nitrogen atmosphere for 17 days, and the content of these compounds was measured on 5, 10 and 17 days after the initiation of the storage.
The content of these compounds was determined quantitatively with high performance liquid chromatography (HPLC), and the rate of the remaining compounds (%) was calculated by the content of Compound (I) determined at each sampling point based on the initial content (100%) determined immediately before the storage.

[1] = 5 days after the initiation of storage
[2] = 10 days after the initiation of storage
[3] = 17 days after the initiation of storage

Stability (Residual rate) [1] [%]	Stability (Residual rate) [2] [%]	Stability (Residual rate) [3] [%]	Stability (Residual rate) (17 days after the initiation of storage, listed as crystal B) [%]	Stability (Residual rate) (17 days after the initiation of storage, listed as crystal C) [%]	Stability (Residual rate) (17 days after the initiation of storage, listed as crystal D) [%]	stability (in words)	Stability (Residual rate) (17 days after the initiation of storage, listed as amorphous A) [%]	SMILES
101.0	100.3	100.4	100	–	–	–	–	CCCCCCCCCCCCCCCC(=O)Nc1ccn([C@@H]2O[C@H](CO)[C@@H](O)[C@@H]2C#N)c(=O)n1 [Crystal B, 2′-cyano-2′-deoxy-N^4-palmitoyl-1-β-D-arabinofuranosylcytosine]
101.0	100.4	100.1	–	100	–	–	–	CCCCCCCCCCCCCCCC(=O)Nc1ccn([C@@H]2O[C@H](CO)[C@@H](O)[C@@H]2C#N)c(=O)n1 [Crystal C, 2′-cyano-2′-deoxy-N^4-palmitoyl-1-β-D-arabinofuranosylcytosine]
99.9	98.3	98.4	–	–	98.4	–	–	CCCCCCCCCCCCCCCC(=O)Nc1ccn([C@@H]2O[C@H](CO)[C@@H](O)[C@@H]2C#N)c(=O)n1 [Crystal D, 2′-cyano-2′-deoxy-N^4-palmitoyl-1-β-D-arabinofuranosylcytosine]
92.7	78.6	62.5	–	–	–	extremely low	62.5	CCCCCCCCCCCCCCCC(=O)Nc1ccn([C@@H]2O[C@H](CO)[C@@H](O)[C@@H]2C#N)c(=O)n1 [Amorphous A, 2′-cyano-2′-deoxy-N^4-palmitoyl-1-β-D-arabinofuranosylcytosine, reference compound]
